The source of these data is US20030077317A1, “Methods and compositions for enhancing the bioadhesive properties of polymers using organic excipients” (Brown University Research Foundation, priority 1996, published 2003).

Data set [1] has as its system everted intestine. As to the kind of experiment: Distribution of acetaminophen in tissue compartments after incubation of everted intestine in vitro. Type of data set: in vitro ADME, rat. As for the experimental part: An in vitro assay for quantifying bioadhesion of microspheres to intestinal tissue was used to test the hot melt microspheres made as described in Example 2 (Jacob et al., Proceed,. Intern. Symp. Control. Rel. Bioact. Mater. 22:312-313 (1995). Everted sac experiments were performed using the microsphere formulations listed above. 6 cm segments of rat jejunum flushed with phosphate buffered saline (PBS), everted and fashioned into sacs filled with PBS. Sacs were incubated with 60 mg of microspheres in 5 ml of PBS at 37° C. with end-over-end agitation. After 30 min, the sacs were removed and the unbound microspheres were collected, washed with distilled water, frozen and lyophilized for 24 hrs. The weight of unbound beads was used to determine the amount of beads bound to the intestine:
The FAPP:SAPP 92:8 18% acetaminophen microspheres were made using the hot melt method described in Example 2, and were used in everted sac experiments and the release of drug was determined to yield information on bioavailability. The release was determined by homogenizing intestinal tissue and mucosal and serosal fluids. The homogenates were centrifuged and the supernatant fluids were assayed for acetaminophen.

Data set [2] deals with rats. As to the kind of experiment: Oral (stomach tube) insulin delivery in rat model, glucose tolerance after subcutaneous glucose load. The data set is classed as in vivo. Particulars: fed by stomach tube, by 3 hours. As for the experimental part: The delivery of insulin after adminstration of the nanoparticles, loaded with 10% (w/w) micronized FeO, was studied in a rat model. Five 300 g fasted rats were anaesthetized with Metofane and fed the following formulations by stomach tube: Rats 1 and 2: 0.5 mL saline Rat 3: 24 I.U. insulin/0.5 mL saline (amorphous suspension) Rats 4 and 5: 50 mg FAPP/PLGA nanospheres containing 20 I.U. insulin and 10% (w/w)FeO Blood samples from the tail vein were taken as an initial baseline and rats were subsequently tested for glucose tolerance following injection of a subcutaneous glucose load, consisting of 5 mL of 5% sterile glucose solution. Tutwiler et al., Diabetes, 27:856-867 (1978). At 1, 3, 4 and 5 hours postfeeding, blood samples were again taken and plasma glucose levels were measured spectrophotometrically at 505 nm using the Trinder glucose assay.

On to `CC(=O)Nc1ccc(O)cc1` [control, acetaminophen], for which, in data set [1] (everted intestine in vitro), the “acetaminophen in gut wall” value is 19 ± 7 mg/dL, the “acetaminophen in mucosal fluid” value is 39 ± 1 mg/dL, the “acetaminophen in serosal fluid” value came out at 13 ± 1 mg/dL and the mucosal/serosal ratio came to 3.0. In addition, in data set [1] (everted sac), the “acetaminophen distribution, gut wall” value is recorded as 7.9 ± 0.9 % of total dose; the “acetaminophen distribution, mucosal fluid” value is given as 86.5 ± 1.5 % of total dose; the “acetaminophen distribution, serosal fluid” value is listed as 5.7 ± 0.9 % of total dose.

With insulin [oral insulin solution], the “increase in blood glucose level over fasting baseline” value in data set [2] is on record as 62%.
